# Patent US20140357487A1, “PLANTS HAVING INCREASED TOLERANCE TO HERBICIDES” (BASF SE, priority 2011, published 2014)
# What was measured:
# [1] = system: Arabidopsis wildtype control plants; assay: Arabidopsis growth inhibition in 48-well plates, wildtype control; format: in vivo, Arabidopsis thaliana; conditions: plant growth IC50 of line divided by that of wildtype plants
# Method: Depending on the species, the plants are kept at 10-25° C. or 20-35° C. The test period extends over 3 weeks. During this time, the plants are tended and their response to the individual treatments is evaluated. Herbicide injury evaluations are taken at 2 and 3 weeks after treatment. Plant injury is rated on a scale of 0 to 9, 0 being no injury and 9 being complete death. Tolerance to coumarone-derivative herbicides can also be assessed in Arabidopsis. In this case transgenic Arabidopsis thaliana plants are assayed for improved tolerance to coumarone-derivative herbicides in 48-well plates. Seeds are surface sterilized by stirring for 5 min in ethanol+water (70+30 by volume), rinsing one time with ethanol+water (70+30 by volume) and two times with a sterile, deionized water. The seeds are resuspended in 0.1% agar dissolved in water (w/v). Four to five seeds per well are plated on solid nutrient medium consisting of half-strength Murashige Skoog nutrient solution, pH 5.8 (Murashige and Skoog (1962) Physiologia Plantarum 15: 473-497). […] Seven to ten days after seeding growth inhibition is evaluated by comparison to wild type plants. Tolerance factor is calculated by dividing the plant growth IC50 value of transgenic plants containing a HPPD and/or HST sequence by that of wildtype plants. […]
# [2] = system: transgenic soybean plants, Arabidopsis P336A E363Q I393L L385V, event SDS-9999; assay: Greenhouse testing of transgenic soybean plants, Arabidopsis P336A E363Q I393L L385V; format: in vivo, Glycine max; conditions: soybean SDS-9999, 5 days after herbicide treatment, average of 8 T1
# Description: (§1) Various methods for the production of stably transformed plants are well known in the art. Coumarone-derivative herbicide tolerant soybean (Glycine max) or corn (Zea mays) plants can be produced by a method described by Olhoft et al. (US patent 2009/0049567). Briefly, HPPD or HST encoding polynucleotides are cloned into a binary vector using standard cloning techniques as described by Sambrook et al. (Molecular cloning (2001) Cold Spring Harbor Laboratory Press). The final vector construct contains an HPPD or HST encoding sequence flanked by a promoter sequence (e.g. the ubiquitin promoter (PcUbi) sequence) and a terminator sequence (e.g. the nopaline synthase terminator (NOS) sequence) and a resistance marker gene cassette (e.g. AHAS) (FIG. 2). Optionally, the HPPD or HST gene can provide the means of selection. Agrobacterium-mediated transformation is used to introduce the DNA into soybean's axillary meristem cells at the primary node of seedling explants. After inoculation and co-cultivation with Agrobacteria, the explants are transferred to shoot induction medium without selection for one week. The explants are subsequently transferred to shoot induction medium with 1-3 μM imazapyr (Arsenal) for 3 weeks to select for transformed cells. Explants with healthy callus/shoot pads at the primary node are then transferred to shoot elongation medium containing 1-3 μM imazapyr until a shoot elongates or the explant dies. After regeneration, transformants are transplanted to soil in small pots, placed in growth chambers (16 hr day/8 hr night; 25° C. day/23° C. night; 65% relative humidity; 130-150 mE m−2 s−1) and subsequently tested for the presence of the T-DNA via Taqman analysis. After a few weeks, healthy, transgenic positive, single copy events are transplanted to larger pots and allowed to grow in the growth chamber. Transformation of corn plants is done by a method described by McElver and Singh (WO 2008/124495). Plant transformation vector constructs containing HPPD or HST sequences are introduced into maize immature embryos via Agrobacterium-mediated transformation. Transformed cells are selected in selection media supplemented with 0.5-1.5 μM imazethapyr for 3-4 weeks. Transgenic plantlets are regenerated on plant regeneration media and rooted afterwards. Transgenic plantlets are subjected to TaqMan analysis for the presence of the transgene before being transplanted to potting mixture and grown to maturity in greenhouse. Arabidopsis thaliana is transformed with HPPD or HST sequences by floral dip method as described by McElver and Singh (WO 2008/124495). Transgenic Arabidopsis plants are subjected to Tag Man analysis for analysis of the number of integration loci. Transformation of Oryza sativa (rice) are done by protoplast transformation as described by Peng et al. (U.S. Pat. No. 6,653,529)
# (§2) Transgenic plants expressing heterologous HPPD or HST enzymes are tested for tolerance against coumarone-derivative herbicides in greenhouse experiments.
# (§3) For post emergence treatment, the test plants are first grown to a height of 3 to 15 cm, depending on the plant habit, and only then treated with the herbicides. For this purpose, the test plants are either sown directly and grown in the same containers, or they are first grown separately and transplanted into the test containers a few days prior to treatment.
# (§4) Depending on the species, the plants are kept at 10-25° C. or 20-35° C. The test period extends over 3 weeks. During this time, the plants are tended and their response to the individual treatments is evaluated. […] Tolerance to coumarone-derivative herbicides can also be assessed in Arabidopsis. In this case transgenic Arabidopsis thaliana plants are assayed for improved tolerance to coumarone-derivative herbicides in 48-well plates. Seeds are surface sterilized by stirring for 5 min in ethanol+water (70+30 by volume), rinsing one time with ethanol+water (70+30 by volume) and two times with a sterile, deionized water. […]
# [3] = system: transgenic corn plants, Arabidopsis M335H, event SDM-71923; assay: Greenhouse testing of transgenic corn plants, Arabidopsis M335H; format: in vivo, Zea mays; conditions: corn SDM-71923, 5 days after herbicide treatment, average of 8 T1
# Description: as §1, §2, §3, §4
# [4] = system: soybean plants, wild type (transgene none); assay: Greenhouse testing of soybean plants, wild type; format: in vivo, Glycine max; conditions: 5 days after herbicide treatment
# Description: as §1, §2, §3, §4
# [5] = system: transgenic soybean plants, Arabidopsis HPPD, event SDS-9857; assay: Greenhouse testing of transgenic soybean plants, Arabidopsis HPPD; format: in vivo, Glycine max; conditions: soybean SDS-9857, 5 days after herbicide treatment, average of 8 T1
# Description: as §1, §2, §3
# as §4, with “The test period extends over 3 weeks.” left out
smiles,measurement,setting,value
"CC1=NOC(c2c(Cl)ccc(C3=C(O)c4ncccc4C(C)(C)S3(=O)=O)c2Cl)C1 (centres unmarked) [Inhibitor 1, 7-[2,4-dichloro-3-(3-methyl-4,5-dihydroisoxazol-5-yl)phenyl]-5,5-dimethyl-6,6-dioxo-thiopyrano[4,3-b]pyridin-8-ol]",Tolerance factor,[1],1
"Cc1c(C(=O)c2cnn(C)c2O)ccc(S(C)(=O)=O)c1C1=NOCC1 [Topramezone, reference compound]","Injury evaluation, scale of 1-100, bleaching phenotype",[2]; 6.25 g/ha,7
same,"Injury evaluation, scale of 1-100, bleaching phenotype",[2]; 25 g/ha,18
same,"Injury evaluation, scale of 1-100, bleaching phenotype",[2]; 100 g/ha,24
same,"Injury evaluation, scale of 1-100, bleaching phenotype",[3]; 6.25 g/ha,0
same,"Injury evaluation, scale of 1-100, bleaching phenotype",[3]; 25 g/ha,0
same,"Injury evaluation, scale of 1-100, bleaching phenotype",[3]; 100 g/ha,0
same,"Injury evaluation, scale of 1-100, bleaching phenotype",[4]; 6.25 g/ha,21
same,"Injury evaluation, scale of 1-100, bleaching phenotype",[4]; 25 g/ha,22
same,"Injury evaluation, scale of 1-100, bleaching phenotype",[4]; 100 g/ha,25
same,"Injury evaluation, scale of 1-100, bleaching phenotype",[5]; 6.25 g/ha,1
same,"Injury evaluation, scale of 1-100, bleaching phenotype",[5]; 25 g/ha,10
same,"Injury evaluation, scale of 1-100, bleaching phenotype",[5]; 100 g/ha,19
"CC1(C)c2cccnc2C(O)=C(c2ccc(Cl)nc2Cl)S1(=O)=O [Inhibitor 2, 7-(2,6-dichloro-3-pyridyl)-5,5-dimethyl-6,6-dioxo-thiopyrano[4,3-b]pyridin-8-ol]","Injury evaluation, scale of 1-100, bleaching phenotype",[2]; 2.5 g/ha,6
same,"Injury evaluation, scale of 1-100, bleaching phenotype",[2]; 10 g/ha,5
same,"Injury evaluation, scale of 1-100, bleaching phenotype",[2]; 40 g/ha,15
same,"Injury evaluation, scale of 1-100, bleaching phenotype",[3]; 2.5 g/ha,6
same,"Injury evaluation, scale of 1-100, bleaching phenotype",[3]; 10 g/ha,4
same,"Injury evaluation, scale of 1-100, bleaching phenotype",[3]; 40 g/ha,6
same,Tolerance factor,[1],1
same,"Injury evaluation, scale of 1-100, bleaching phenotype",[4]; 2.5 g/ha,11
same,"Injury evaluation, scale of 1-100, bleaching phenotype",[4]; 10 g/ha,17
same,"Injury evaluation, scale of 1-100, bleaching phenotype",[4]; 40 g/ha,23
same,"Injury evaluation, scale of 1-100, bleaching phenotype",[5]; 2.5 g/ha,1
same,"Injury evaluation, scale of 1-100, bleaching phenotype",[5]; 10 g/ha,1
same,"Injury evaluation, scale of 1-100, bleaching phenotype",[5]; 40 g/ha,2
